Laboratory results reported in patent US9867796B2, “Combination of a leucine source and an omega-3 unsaturated fatty acid source for use in the treatment of hypercalcaemia” (N.V. Nutricia, priority 2009, dated 2018).

Tests used:
[1] = tested on: tumour-bearing mice (Murine C-26 adenocarcinoma cells); experiment: Bone mineral density in C-26 tumour-bearing mice on experimental diets (experiment A); type: in vivo; settings: diet added to AIN93-M high protein, day 20, compared to TB on control diet (FIG. 1A)
[2] = tested on: tumour-bearing mice (Murine C-26 adenocarcinoma cells); experiment: Plasma calcium levels in C-26 tumour-bearing mice, single or combined ingredients (experiment A); type: in vivo; settings: diet added to AIN93-M high protein, day 20, compared to TB on control diet (FIG. 1B)

Question: Which bone mineral density [1] does the source give for `CC(C)C[C@H](N)C(=O)O` [leucine] here?
Answer: did not result in significant changes compared to TB

Question: What about the plasma calcium levels [2] of the same molecule?
Answer: no effect
